In patent US20240010654A1, “CRYSTALLINE FORMS OF A TYK2 INHIBITOR” (Ventyx Biosciences, Inc., priority 2022, published 2024):
Several values for one entry are separate records, joined by “and”; a condition that tells them apart may be missing. Identical values can stand only once. Counter-ions that a name gives are not always drawn. Like-named read-outs stand apart in the source and are kept apart here. Each block holds one compound with its values, some of them ahead of it.

Legend:
[1] = Pharmacokinetics following oral administration in male cynomolgus monkeys; assay type: in vivo; settings: for AUC/Dose: in ng·h/mL per mg/kg; for Cmax: read-out: C0/Cmax
Experimental: The gavage tube was flushed with 5 mL of vehicle after administration of the dose. Plasma samples were collected at the following time points: 15 min, 30 min, 1 hr, 2 hr, 4 hr, 6 hr, 8 hr and 24 hr postdose. The concentrations of Compound 1 were determined in plasma.

[2] = Competitive slurry experiments of Compound 1 adipate, Forms 1, 2 and 3; assay type: physicochemical; settings: from the competitive slurry experiments
Experimental: The resulting solid was collected by filtration and analyzed by XRPD.
A mixed sample of Compound 1 adipate, […] and Compound 1 adipate, Form 2 was suspended in solvents (40 mg, 0.5 mL) and stirred at 50° C. for 1 h. The resulting solid was collected by filtration and analyzed by XRPD.

[3] = Dynamic Vapor Sorption (DVS); assay type: physicochemical; settings: for hygroscopicity of the material (DVS): 25° C.; for Post-DVS analysis by XRPD: after DVS cycle at 25° C.
Experimental: DVS data was collected on a Vsorp Dynamic Moisture Sorption Analyzer (ProUmid GmbH & Co. KG, Germany). The sample was placed into a tared sample chamber and automatically weighed. • Sample temperature: 25° C. • Cycle: Full cycle • Adsorption: 0, 10, 20, 30, 40, 50, 60, 70, 80, 90 • Desorption: 80, 70, 60, 50, 40, 30, 20, 10, 0 • Characterize the sample after the DVS experiment by XRPD
Alternatively, DVS analysis was carried out using a Surface Measurement System DVS Intrinsic analyzer. The instrument was calibrated with standard weights. Approximately 15-20 mg of sample was loaded into a pan for analysis. The sample was analyzed at 25° C. in 10% relative humidity (RH) steps from 50% to 95% RH (adsorption cycle), from 95% to 0% RH (desorption cycle), and from 0% to 50% RH (adsorption cycle). The movement from one step to the next occurred either after satisfying the equilibrium criterion of 0.002% weight change (dm/dt) or, if the equilibrium criterion was not met, after ten hours. Samples after the DVS test were tested by XRPD.

[4] = Stability test of Compound 1 adipate, Form 1 (HPLC purity and XRPD after storage); assay type: physicochemical; settings: for XRPD (crystal form at day 7): after 7 days storage
Experimental: Samples were prepared in duplicate for each condition. At day 7, the samples were analyzed by HPLC and XRPD to check the purity and the crystal form, respectively.

JAK1/TYK2 = experiment: Co-stimulation assay in lysed whole blood: IFNa (JAK1/TYK2) stimulated STAT1 phosphorylation; assay type: cell-based; settings: lysed human whole blood, IFNa 100 ng/mL, pSTAT1 by flow cytometry; read-out: IFN-a/Jak1Tyk2 IC50
Experimental: Example 16: Co-Stimulation Assay in Lysed Whole Blood; JAK2: GM-CSF Stimulated STAT5 Phosphorylation and JAK1/TYK2 Stimulated STAT1 Phosphorylation Assay
Dilute RBC lysis buffer to 1× in distilled water. Add 2 mL blood to 38 mL of 1×RBC-lysis buffer. Incubate for 15 mins at RT, in dark. Spin at 300 g, 5 mins, to collect the pellet. Re-lyse if necessary. Re-suspend pellet in 5 mL of cRPMI.
Aliquot 80 μL of lysed human blood in to wells of 96 deep-well plate. Add 10 μL of (10× conc.) of different concentrations of Compound 1 to all wells except controls (unstained and unstimulated) and mix it with the help of 100 uL multichannel. Add 10 uL of RPMI media in controls. For dilution of Compound 1 and dilution range please refer Appendix. Incubate on water bath or CO2 incubator for 1 hour at 37° C. Add 10 μL of (10× conc.) of cytokine mix (GM-CSF and IFNa) (final conc. 10 ng/mL of GM-CSF and 100 ng/mL of IFNa) to each well except unstimulated and unstained controls and incubate further for 20 minutes on water bath at 37° C.
Add 900 μL of prewarmed 1× Fix/Lyse solution (Appendix) and mix it properly using 1000 μl multichannel, incubate further on water bath at 37° C. for 10 minutes (which includes time of addition). Centrifuge at 800×g for 5 minutes at 40° C.; remove 900 uL of supernatant and add 900 μL of 1×PBS. Centrifuge at 800×g for 5 minutes at 40° C., remove 900 μL of supernatant. […]

[5] = male, cynomolgus monkey, plasma, po, 50 mg/kg, PO BID, 50 mg/kg BID

Structure (SMILES): CNc1cc(Nc2cc(F)cc3c2OCCO3)nc2c(NC(=O)N[C@@H]3C[C@@H]3F)cnn12 [Compound 1 adipate, Form 1, 1-(5-((7-fluoro-2,3-dihydrobenzo[b][1,4]dioxin-5-yl)amino)-7-(methylamino)pyrazolo[1,5-a]pyrimidin-3-yl)-3-((1R,2S)-2-fluorocyclopropyl)urea adipate]
% F (oral bioavailability) ([1]; PO, 5 mg/kg, Form 1, 5 mg/kg): 33.6%
AUClast ([1]; PO, 5 mg/kg, Form 1, 5 mg/kg): 2347 ng·h/mL
C0/Cmax ([1]; PO, 5 mg/kg, Form 1, 5 mg/kg): 672 ng/mL
Tmax ([1]; PO, 5 mg/kg, Form 1, 5 mg/kg): 2.67 h
AUC/Dose ([1]; PO, 5 mg/kg, Form 1, 5 mg/kg): 469
AUC/Dose ([1]; PO, 100 mg/kg): 1083
half-life ([1]; cynomolgus monkey, plasma, PO, 5 mg/kg): 2.66 h
AUC(0-t) ([1]; male, cynomolgus monkey, plasma, po, 100 mg/kg): 108000 ng·h/mL
Cmax ([1]; male, cynomolgus monkey, plasma, po, 100 mg/kg, PO, 100 mg/kg): 9770 ng/mL
Tmax ([1]; male, cynomolgus monkey, plasma, po, 100 mg/kg, PO, 100 mg/kg, read-out: Tmax): 4.67 h
PK compared to Compound 1 free base, Form A ([1]; oral gavage, Table 9): faster Tmax and higher AUC
PK compared to Compound 1 oxalate, Form 1 ([1]; oral gavage, Table 10): faster Tmax, higher AUC, and higher oral bioavailability (% F)
relative stability among the three Compound 1 adipate forms [2]: most stable form
hygroscopicity of the material (DVS) [3]: non-hygroscopic
water uptake (DVS) ([3]; 80% RH and 25° C.): less than 0.2%
Post-DVS analysis by XRPD [3]: no change
HPLC purity ([4]; 40° C./75% RH (open) @ 7 d, duplicate, batch from DMSO/EtOAc/EtOH): 99.75 and 99.86
HPLC purity ([4]; 40° C./75% RH (open) @ 7 d, duplicate, batch from DMSO/EtOH/Water): 99.64 and 99.65
HPLC purity ([4]; 40° C./75% RH (open) @ 7 d, duplicate, batch from acetone/water (19/1)): 99.43 and 99.44
physical and chemical stability ([4]; 60° C. (capped) and 40° C./75% RH (open) for 1 week): both physically and chemically stable
HPLC purity ([4]; 60° C./capped @ 7 d, duplicate, batch from DMSO/EtOAc/EtOH): 99.85 and 99.82
HPLC purity ([4]; 60° C./capped @ 7 d, duplicate, batch from DMSO/EtOH/Water): 99.65/99.65
HPLC purity ([4]; 60° C./capped @ 7 d, duplicate, batch from acetone/water (19/1)): 99.44/99.44
HPLC purity ([4]; Day 0, batch from DMSO/EtOAc/EtOH (Example 13Ac)): 99.86
HPLC purity ([4]; Day 0, batch from DMSO/EtOH/Water (Example 13Ad)): 99.66
HPLC purity ([4]; Day 0, batch from acetone/water (19/1) (Example 13Ab)): 99.49
XRPD (crystal form at day 7) ([4]; batch from DMSO/EtOAc/EtOH): Adipate, Form 1
XRPD (crystal form at day 7) ([4]; batch from DMSO/EtOH/Water): Adipate, Form 1
XRPD (crystal form at day 7) ([4]; batch from acetone/water (19/1)): Adipate, Form 1

Structure (SMILES): CNc1cc(Nc2cc(F)cc3c2OCCO3)nc2c(NC(=O)N[C@@H]3C[C@@H]3F)cnn12 [Compound 1 mesylate, Form 1, 1-(5-((7-fluoro-2,3-dihydrobenzo[b][1,4]dioxin-5-yl)amino)-7-(methylamino)pyrazolo[1,5-a]pyrimidin-3-yl)-3-((1R,2S)-2-fluorocyclopropyl)urea]
water uptake (DVS) ([3]; 95% RH and 25° C.): 2.65%
Post-DVS analysis by XRPD [3]: no change

Structure (SMILES): CNc1cc(Nc2cc(F)cc3c2OCCO3)nc2c(NC(=O)N[C@@H]3C[C@@H]3F)cnn12 [Compound 1 oxalate, Form 1, 1-(5-((7-fluoro-2,3-dihydrobenzo[b][1,4]dioxin-5-yl)amino)-7-(methylamino)pyrazolo[1,5-a]pyrimidin-3-yl)-3-((1R,2S)-2-fluorocyclopropyl)urea]
C0/Cmax ([1]; PO, 5 mg/kg, Form 1, 5 mg/kg): 103 ng/mL
AUC/Dose ([1]; PO, 5 mg/kg, Form 1, 5 mg/kg): 302
AUC(0-t) ([1]; male, cynomolgus monkey, plasma, po, 5 mg/kg): 1510 ng·h/mL
bioavailability ([1]; male, cynomolgus monkey, plasma, po, 5 mg/kg, PO, 5 mg/kg, read-out: % F (oral bioavailability)): 21.6%
Tmax ([1]; male, cynomolgus monkey, plasma, po, 5 mg/kg, PO, 5 mg/kg, read-out: Tmax): 4.67 h
hygroscopicity of the material (DVS) [3]: slightly hygroscopic
water uptake (DVS) ([3]; 80% RH and 25° C.): 0.37%
Post-DVS analysis by XRPD [3]: no change

Structure (SMILES): CNc1cc(Nc2cc(F)cc3c2OCCO3)nc2c(NC(=O)N[C@@H]3C[C@@H]3F)cnn12 [Compound 1 phosphate, Form 1, 1-(5-((7-fluoro-2,3-dihydrobenzo[b][1,4]dioxin-5-yl)amino)-7-(methylamino)pyrazolo[1,5-a]pyrimidin-3-yl)-3-((1R,2S)-2-fluorocyclopropyl)urea]
hygroscopicity of the material (DVS) [3]: slightly hygroscopic
water uptake (DVS) ([3]; 80% RH and 25° C.): 1.20%
Post-DVS analysis by XRPD [3]: no change

Other lines, results leading:

IC50 (JAK1/TYK2): < 1 µM
Structure (SMILES): CNc1cc(Nc2cc(F)cc3c2OCCO3)nc2c(NC(=O)N[C@@H]3C[C@@H]3F)cnn12 [Compound 1, 1-(5-((7-fluoro-2,3-dihydrobenzo[b][1,4]dioxin-5-yl)amino)-7-(methylamino)pyrazolo[1,5-a]pyrimidin-3-yl)-3-((1R,2S)-2-fluorocyclopropyl)urea]

AUC/Dose ([1]; PO BID, 50 mg/kg BID): 761
AUC(0-t) [1, 5]: 76100 ng·h/mL
Tmax ([1]; male, cynomolgus monkey, plasma, po, 50 mg/kg, PO BID, 50 mg/kg BID, after second dose, read-out: Tmax): 7 h
Cmax [1, 5]: 5630 ng/mL
water uptake (DVS) ([3]; 95% RH and 25° C.): 5.08%
Post-DVS analysis by XRPD [3]: no change
Structure (SMILES): CNc1cc(Nc2cc(F)cc3c2OCCO3)nc2c(NC(=O)N[C@@H]3C[C@@H]3F)cnn12 [Compound 1, Form A, 1-(5-((7-fluoro-2,3-dihydrobenzo[b][1,4]dioxin-5-yl)amino)-7-(methylamino)pyrazolo[1,5-a]pyrimidin-3-yl)-3-((1R,2S)-2-fluorocyclopropyl)urea]

water uptake (DVS) ([3]; 95% RH and 25° C.): 0.68%
Post-DVS analysis by XRPD [3]: no change
Structure (SMILES): CNc1cc(Nc2cc(F)cc3c2OCCO3)nc2c(NC(=O)N[C@@H]3C[C@@H]3F)cnn12 [Compound 1, Form B, 1-(5-((7-fluoro-2,3-dihydrobenzo[b][1,4]dioxin-5-yl)amino)-7-(methylamino)pyrazolo[1,5-a]pyrimidin-3-yl)-3-((1R,2S)-2-fluorocyclopropyl)urea]
